According to patent US10023559B2 (Hoffmann-La Roche Inc., priority 2014, dated 2018):

What was measured:
rat TAAR1 = rat TAAR1 (Rattus norvegicus (Rat), UniProt Q923Y9); test: Radioligand binding assay on rat TAAR1; conditions: read-out: Ki(μM) rat; rat TAAR1, HEK-293 membranes, second value of cell pair mouse/rat
mouse TAAR1 = mouse TAAR1 (Mus musculus (Mouse), UniProt Q923Y8); test: Radioligand binding assay on mouse TAAR1
Sequence of mouse TAAR1 (Q923Y8 whole entry): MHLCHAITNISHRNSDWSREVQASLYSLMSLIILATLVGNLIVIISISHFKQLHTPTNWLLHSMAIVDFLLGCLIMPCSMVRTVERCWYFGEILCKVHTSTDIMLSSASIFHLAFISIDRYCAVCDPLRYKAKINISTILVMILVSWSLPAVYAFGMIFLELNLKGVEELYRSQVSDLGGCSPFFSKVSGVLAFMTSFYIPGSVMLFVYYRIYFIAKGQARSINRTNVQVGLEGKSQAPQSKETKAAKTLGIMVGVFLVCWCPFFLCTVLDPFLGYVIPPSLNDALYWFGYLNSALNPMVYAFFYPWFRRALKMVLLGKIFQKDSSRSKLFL
Experimental: Membrane Preparation and Radioligand Binding.
HEK-293 cells stably expressing mouse TAAR1 were maintained at 37° C. and 5% CO2 in DMEM high glucose medium, containing fetal calf serum (10%, heat inactivated for 30 min at 56° C.), penicillin/streptomycin (1%), and 375 μg/ml geneticin (Gibco). Cells were released from culture flasks using trypsin/EDTA, harvested, washed twice with ice-cold PBS (without Ca^2+ and Mg^2+), pelleted at 1,000 rpm for 5 min at 4° C., frozen and stored at −80° C. Frozen pellets were suspended in 20 ml HEPES-NaOH (20 mM, pH 7.4) containing 10 mM EDTA and homogenized with a Polytron (PT 6000, Kinematica) at 14,000 rpm for 20 s. The homogenate was centrifuged at 48,000×g for 30 min at 4° C. Subsequently, the supernatant was removed and discarded, and the pellet resuspended in 20 ml HEPES-NaOH (20 mM, pH 7.4) containing 0.1 mM EDTA using the Polytron (20 s at 14,000 rpm). This procedure was repeated and the final pellet resuspended in HEPES-NaOH containing 0.1 mM EDTA and homogenized using the Polytron. Typically, aliquots of 2 ml membrane portions were stored at −80° C. With each new membrane batch the dissociation constant (Kd) was determined via a saturation curve. […] Nonspecific binding was defined as the amount of ^3[H]—(S)-4-[(ethyl-phenyl-amino)-methyl]-4,5-dihydro-oxazol-2-ylamine bound in the presence of 10 M unlabeled ligand. All compounds were tested at a broad range of concentrations (10 pM to 10 μM) in duplicates. […] The 96 deep well plates were incubated for 1 hr at 4° C. Incubations were terminated by rapid filtration through Unifilter-96 plates (Packard Instrument Company) and glass filters GF/C (Perkin Elmer) presoaked for 1 hr in polyethylenimine (0.3%) and washed 3 times with 1 ml of cold binding buffer. After addition of 45 μl of Microscint 40 (PerkinElmer) the Unifilter-96 plate was sealed and after 1 hr the radioactivity counted using a TopCount Microplate Scintillation Counter (Packard Instrument Company).

Sequence of rat TAAR1 (Q923Y9 whole entry): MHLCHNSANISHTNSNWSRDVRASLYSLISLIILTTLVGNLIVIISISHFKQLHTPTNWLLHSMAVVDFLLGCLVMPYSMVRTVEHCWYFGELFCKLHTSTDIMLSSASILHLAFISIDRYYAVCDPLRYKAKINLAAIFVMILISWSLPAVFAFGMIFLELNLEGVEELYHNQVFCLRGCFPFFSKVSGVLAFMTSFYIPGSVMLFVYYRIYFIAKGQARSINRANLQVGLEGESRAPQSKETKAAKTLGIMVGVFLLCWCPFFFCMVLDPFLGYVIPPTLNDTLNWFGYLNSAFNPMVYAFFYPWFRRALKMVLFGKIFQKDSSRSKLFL

| SMILES | Ki (rat TAAR1) [µM] | Ki (mouse TAAR1) [nM] |
| --- | --- | --- |
| F[C@@H]1CN[C@H]1Cc1ccccc1 [Example 91, (2S,3R)-2-benzyl-3-fluoroazetidine] | 0.149 | 1070 |
| CCc1n[nH]c(C(=O)Nc2ccc(C[C@H]3NC[C@H]3F)cc2)c1C [Example 103, 3-ethyl-N-(4-(((2R,3R)-3-fluoroazetidin-2-yl)methyl)phenyl)-4-methyl-1H-pyrazole-5-carboxamide] | 1.27 | 45.6 |
| COC1(Cc2ccc(NC(=O)c3ccc(Cl)nc3)cc2)CNC1 [Example 73, 6-chloro-N-[4-[(3-methoxyazetidin-3-yl)methyl]phenyl]pyridine-3-carboxamide] | 0.0543 | 13.6 |
| COc1ccc(NC(=O)Nc2ccc(CC3CNC3)cc2)cc1 [Example 114, 1-[4-(azetidin-3-ylmethyl)phenyl]-3-(4-methoxyphenyl)urea] | 0.156 | 160 |
| O=C(Nc1ccc(OC2CNC2)cc1)c1cc(C(F)(F)F)n[nH]1 [Example 24, N-(4-(azetidin-3-yloxy)phenyl)-3-(trifluoromethyl)-1H-pyrazole-5-carboxamide] | 0.0701 | 32.8 |
| O=C(Nc1ccc(CC2(F)CNC2)cc1)c1cnc(OCC(F)(F)F)cn1 [Example 57, N-[4-[(3-fluoroazetidin-3-yl)methyl]phenyl]-5-(2,2,2-trifluoroethoxy)pyrazine-2-carboxamide] | 0.0369 | 14.7 |
| FC(F)(F)c1cnc(Nc2ccc(C=C3CNC3)cc2)nc1 [Example 63, N-[4-(azetidin-3-ylidenemethyl)phenyl]-5-(trifluoromethyl)pyrimidin-2-amine] | 0.0385 | 61.4 |
| O=C(Nc1ccc(OC2CNC2)c(F)c1)c1[nH]nc(C2CC2)c1Cl [Example 25, N-[4-(azetidin-3-yloxy)-3-fluoro-phenyl]-4-chloro-3-cyclopropyl-1H-pyrazole-5-carboxamide] | 0.0113 | 3 |
| COc1cc(C(=O)Nc2ccc(C[C@@H]3NC[C@@H]3F)cc2)ccn1 [Example 127, N-(4-(((2S,3S)-3-fluoroazetidin-2-yl)methyl)phenyl)-2-methoxyisonicotinamide] | 0.133 | 3.8 |
